Measured values published in patent publication US10259810B2, “N-sulfonylated pyrazolo[3,4-b]pyridin-6-carboxamides and method of use” (AbbVie S.à.r.l., priority 2015, dated 2019).

Columns and labels:
ΔF508-CFTR [1] = target: T1, ΔF508-CFTR (Homo sapiens, UniProt P13569, DEL508-508); test: CFTR cell surface levels using HRP-tagged ΔF508-CFTR expressing CFBE cells, in the presence of a co-corrector; format: cell-based
T1 construct: host or cells: CFBE41o-, doxycycline-inducible
How it was run: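 Chemiluminescent read-out of surface HRP (15 min, dark) after PBS washes. Activity is normalized as 100×(sample−DMSO)/(3 μM co-corrector alone−DMSO).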

ΔF508-CFTR [2] = target: T1, ΔF508-CFTR; test: CFTR cell surface levels using HRP-tagged ΔF508-CFTR expressing CFBE cells, intrinsic corrector capacity; format: cell-based; parameters: % Activation: concentration or dose not given beside the values
How it was run: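 Read-out: chemiluminescent HRP activity of ECL4-HRP-tagged ΔF508-CFTR at the cell surface, 15 min substrate in dark. Normalized as 100×(sample−DMSO)/(positive control−DMSO).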

[3] = HRP-tagged ΔF508-CFTR CFBE cells, in the presence of 3 μM co-corrector
[4] = HRP-tagged ΔF508-CFTR CFBE cells, in the presence of 3 μM co-corrector, read-out: EC50
[5] = HRP-tagged ΔF508-CFTR expressing CFBE41o- cells, compound alone (intrinsic corrector capacity), 20 hours at 33° C.
[6] = HRP-tagged ΔF508-CFTR expressing CFBE41o- cells, compound alone (intrinsic corrector capacity), 20 hours at 33° C., read-out: EC50

T1 sequence (P13569 with tags, fused parts or gaps DEL508-508): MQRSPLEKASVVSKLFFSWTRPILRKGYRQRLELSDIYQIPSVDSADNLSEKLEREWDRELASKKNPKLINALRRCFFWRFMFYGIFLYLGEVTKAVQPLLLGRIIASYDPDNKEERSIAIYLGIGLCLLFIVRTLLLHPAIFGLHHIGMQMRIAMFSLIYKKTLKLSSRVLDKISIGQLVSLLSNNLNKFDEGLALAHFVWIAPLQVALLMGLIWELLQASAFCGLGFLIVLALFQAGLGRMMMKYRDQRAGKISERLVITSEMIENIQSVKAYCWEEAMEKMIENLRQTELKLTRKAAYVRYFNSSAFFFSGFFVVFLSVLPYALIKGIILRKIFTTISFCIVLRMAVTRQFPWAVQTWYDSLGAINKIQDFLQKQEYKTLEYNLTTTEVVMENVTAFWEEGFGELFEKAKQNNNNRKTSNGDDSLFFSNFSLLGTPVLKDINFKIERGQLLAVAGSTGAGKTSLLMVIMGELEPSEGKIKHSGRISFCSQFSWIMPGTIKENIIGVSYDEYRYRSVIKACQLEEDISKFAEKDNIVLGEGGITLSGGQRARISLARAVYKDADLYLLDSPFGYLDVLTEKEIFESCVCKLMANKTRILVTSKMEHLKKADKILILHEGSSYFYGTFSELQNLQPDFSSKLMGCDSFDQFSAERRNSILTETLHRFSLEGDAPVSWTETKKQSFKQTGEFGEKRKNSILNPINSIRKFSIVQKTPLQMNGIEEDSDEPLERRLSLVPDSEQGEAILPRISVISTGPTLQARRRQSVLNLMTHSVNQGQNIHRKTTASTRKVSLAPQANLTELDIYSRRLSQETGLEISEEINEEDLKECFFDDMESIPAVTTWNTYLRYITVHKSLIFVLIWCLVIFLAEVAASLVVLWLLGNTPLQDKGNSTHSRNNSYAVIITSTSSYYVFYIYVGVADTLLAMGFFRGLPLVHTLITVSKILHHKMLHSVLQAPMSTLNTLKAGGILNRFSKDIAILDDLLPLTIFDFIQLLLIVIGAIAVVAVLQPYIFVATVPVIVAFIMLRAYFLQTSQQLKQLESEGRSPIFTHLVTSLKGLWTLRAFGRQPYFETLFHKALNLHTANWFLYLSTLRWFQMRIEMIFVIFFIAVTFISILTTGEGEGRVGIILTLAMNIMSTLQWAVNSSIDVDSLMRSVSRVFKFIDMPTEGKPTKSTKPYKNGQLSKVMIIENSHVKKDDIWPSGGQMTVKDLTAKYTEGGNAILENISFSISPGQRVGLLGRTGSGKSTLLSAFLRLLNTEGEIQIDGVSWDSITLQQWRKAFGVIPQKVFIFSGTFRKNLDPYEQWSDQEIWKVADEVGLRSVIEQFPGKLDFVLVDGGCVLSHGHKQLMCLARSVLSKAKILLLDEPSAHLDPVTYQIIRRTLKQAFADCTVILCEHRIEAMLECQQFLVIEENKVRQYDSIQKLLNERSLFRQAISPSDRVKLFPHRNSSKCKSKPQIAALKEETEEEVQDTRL

Structure (SMILES) | % Activation (ΔF508-CFTR [1]; [3]) | EC50 (ΔF508-CFTR [1]; [4]) | % Activation (ΔF508-CFTR [2]; [5]) | EC50 (ΔF508-CFTR [2]; [6]) | EC50 (ΔF508-CFTR [1]) | EC50 (ΔF508-CFTR [2])
COCC1CCN(c2cc(C(=O)NS(=O)(=O)CCCO)nc3c2c(C2CCC2)nn3-c2ccccc2)CC1 [Compound 367, 3-cyclobutyl-N-(3-hydroxypropane-1-sulfonyl)-4-[4-(methoxymethyl)piperidin-1-yl]-1-phenyl-1H-pyrazolo[3,4-b]pyridine-6-carboxamide] | 526.17% | 81.6 nM | 364.5% | 311 nM |  | 
COCC1CCN(c2cc(C(=O)NS(=O)(=O)C3CCNCC3)nc3c2c(C2CCC2)nn3-c2ccccc2)CC1 [Compound 368, 3-cyclobutyl-4-[4-(methoxymethyl)piperidin-1-yl]-1-phenyl-N-(piperidine-4-sulfonyl)-1H-pyrazolo[3,4-b]pyridine-6-carboxamide] | 350.23% | 361 nM | 185% | 1360 nM |  | 
CS(=O)(=O)NC(=O)c1cc(N2CCS(=O)(=O)CC2)c2c(C3CCC3)nn(-c3ccccc3)c2n1 [Compound 371, 3-cyclobutyl-4-(1,1-dioxo-1λ^6,4-thiazinan-4-yl)-N-(methanesulfonyl)-1-phenyl-1H-pyrazolo[3,4-b]pyridine-6-carboxamide] | 271.9% | 1930 nM | 121.3% | 2740 nM |  | 
COCC1CCN(c2cc(C(=O)NS(=O)(=O)CCNC(=O)OCc3ccccc3)nc3c2c(C2CCC2)nn3-c2ccccc2)CC1 [Compound 373, benzyl [2-({3-cyclobutyl-4-[4-(methoxymethyl)piperidin-1-yl]-1-phenyl-1H-pyrazolo[3,4-b]pyridine-6-carbonyl}sulfamoyl)ethyl]carbamate] | 580.5% | 85.8 nM | 368.2% | 73 nM |  | 
COCC1CCN(c2cc(C(=O)NS(=O)(=O)C3(C)CC3)nc3c2c(C2CCC2)nn3-c2ccccc2)CC1 [Compound 374, 3-cyclobutyl-4-[4-(methoxymethyl)piperidin-1-yl]-N-(1-methylcyclopropane-1-sulfonyl)-1-phenyl-1H-pyrazolo[3,4-b]pyridine-6-carboxamide] | 426.05% | 196 nM | 240.7% | 254 nM |  | 
COCC1CCN(c2cc(C(=O)NS(=O)(=O)CC(C)C)nc3c2c(C2CCC2)nn3-c2ccccc2)CC1 [Compound 375, 3-cyclobutyl-4-[4-(methoxymethyl)piperidin-1-yl]-N-(2-methylpropane-1-sulfonyl)-1-phenyl-1H-pyrazolo[3,4-b]pyridine-6-carboxamide] | 546.75% | 241 nM | 321.6% | 571 nM |  | 
COCC1CCN(c2cc(C(=O)NS(=O)(=O)CC(=O)OC)nc3c2c(C2CCC2)nn3-c2ccccc2)CC1 [Compound 376, methyl ({3-cyclobutyl-4-[4-(methoxymethyl)piperidin-1-yl]-1-phenyl-1H-pyrazolo[3,4-b]pyridine-6-carbonyl}sulfamoyl)acetate] | 496.8% | 51.6 nM | 355.7% | 117 nM |  | 
COCC1CCN(c2cc(C(=O)NS(=O)(=O)C3CCN(C(=O)OCc4ccccc4)C3)nc3c2c(C2CCC2)nn3-c2ccccc2)CC1 (stereo not shown) [Compound 377, benzyl 3-({3-cyclobutyl-4-[4-(methoxymethyl)piperidin-1-yl]-1-phenyl-1H-pyrazolo[3,4-b]pyridine-6-carbonyl}sulfamoyl)pyrrolidine-1-carboxylate] | 485.55% | 103 nM | 261.3% | 129 nM |  | 
CC(C)c1nn(-c2ccc(F)cc2)c2nc(C(=O)NS(C)(=O)=O)cc(C3CCN(C(=O)OC(C)(C)C)CC3)c12 [Compound 378, tert-butyl 4-[1-(4-fluorophenyl)-6-[(methanesulfonyl)carbamoyl]-3-(propan-2-yl)-1H-pyrazolo[3,4-b]pyridin-4-yl]piperidine-1-carboxylate] | 318.6% | 658 nM | 160% | 1330 nM |  | 
O=C(NS(=O)(=O)N1CCOCC1)c1cc(N2CCC(CN3CCCC3)CC2)c2c(C3CCC3)nn(-c3ccccc3)c2n1 [Compound 380, 3-cyclobutyl-N-(morpholine-4-sulfonyl)-1-phenyl-4-{4-[(pyrrolidin-1-yl)methyl]piperidin-1-yl}-1H-pyrazolo[3,4-b]pyridine-6-carboxamide] | 309.17% |  | 131.7% |  | 127 nM | 279 nM
O=C(NS(=O)(=O)N1CCOCC1)c1cc(N2CCC(N3CCOCC3)CC2)c2c(C3CCC3)nn(-c3ccccc3)c2n1 [Compound 383, 3-cyclobutyl-N-(morpholine-4-sulfonyl)-4-[4-(morpholin-4-yl)piperidin-1-yl]-1-phenyl-1H-pyrazolo[3,4-b]pyridine-6-carboxamide] | 412.20% |  | 202.9% |  |  | 
COCC1CCN(c2cc(C(=O)NS(=O)(=O)CC(N)=O)nc3c2c(C2CCC2)nn3-c2ccccc2)CC1 [Compound 384, N-(2-amino-2-oxoethanesulfonyl)-3-cyclobutyl-4-[4-(methoxymethyl)piperidin-1-yl]-1-phenyl-1H-pyrazolo[3,4-b]pyridine-6-carboxamide] | 391.35% | 1440 nM | 228% | 2860 nM |  | 
COCC1CCN(c2cc(C(=O)NS(=O)(=O)CCNC(C)=O)nc3c2c(C2CCC2)nn3-c2ccccc2)CC1 [Compound 386, N-(2-acetamidoethanesulfonyl)-3-cyclobutyl-4-[4-(methoxymethyl)piperidin-1-yl]-1-phenyl-1H-pyrazolo[3,4-b]pyridine-6-] | 385.05% | 685 nM | 237.85% | 2120 nM |  | 
COCC1CCN(c2cc(C(=O)NS(=O)(=O)C3CCNC3)nc3c2c(C2CCC2)nn3-c2ccccc2)CC1 (stereo not shown) [Compound 387, 3-cyclobutyl-4-[4-(methoxymethyl)piperidin-1-yl]-1-phenyl-N-(pyrrolidine-3-sulfonyl)-1H-pyrazolo[3,4-b]pyridine-6-carboxamide] | 168.9% | 161 nM | 60.58% | 462 nM |  | 
COCC1CCN(c2cc(C(=O)NS(=O)(=O)N3CCC(N4CCCC4)CC3)nc3c2c(C2CCC2)nn3-c2ccccc2)CC1 [Compound 388, 3-cyclobutyl-4-[4-(methoxymethyl)piperidin-1-yl]-1-phenyl-N-[4-(pyrrolidin-1-yl)piperidine-1-sulfonyl]-1H-pyrazolo[3,4-b]pyridine-6-carboxamide] | 364.5% |  | 192.8% |  | 196 nM | 218 nM
COCC1CCN(c2cc(C(=O)NS(=O)(=O)N3CCC[C@H]3C(=O)N3CCN(C)CC3)nc3c2c(C2CCC2)nn3-c2ccccc2)CC1 [Compound 389, 3-cyclobutyl-4-[4-(methoxymethyl)piperidin-1-yl]-N-[(2S)-2-(4-methylpiperazine-1-carbonyl)pyrrolidine-1-sulfonyl]-1-phenyl-1H-pyrazolo[3,4-b]pyridine-6-carboxamide] | 305.1% | 297 nM | 165% | 556 nM |  | 
COCC1CCN(c2cc(C(=O)NS(=O)(=O)N3CCC(N4CCC[C@H]4COC)CC3)nc3c2c(C2CCC2)nn3-c2ccccc2)CC1 [Compound 390, 3-cyclobutyl-4-[4-(methoxymethyl)piperidin-1-yl]-N-{4-[(2S)-2-(methoxymethyl)pyrrolidin-1-yl]piperidine-1-sulfonyl}-1-phenyl-1H-pyrazolo[3,4-b]pyridine-6-carboxamide] | 350.17% | 140 nM | 188.2% | 177 nM |  | 
CCCN(C)S(=O)(=O)NC(=O)c1cc(N2CCC(COC)CC2)c2c(C3CCC3)nn(-c3ccccc3)c2n1 [Compound 391, 3-cyclobutyl-4-[4-(methoxymethyl)piperidin-1-yl]-N-[methyl(propyl)sulfamoyl]-1-phenyl-1H-pyrazolo[3,4-b]pyridine-6-carboxamide] | 441.15% | 85.5 nM | 247.7% | 77.1 nM |  | 
CCCN(CC)S(=O)(=O)NC(=O)c1cc(N2CCC(COC)CC2)c2c(C3CCC3)nn(-c3ccccc3)c2n1 [Compound 392, 3-cyclobutyl-N-[ethyl(propyl)sulfamoyl]-4-[4-(methoxymethyl)piperidin-1-yl]-1-phenyl-1H-pyrazolo[3,4-b]pyridine-6-carboxamide] | 421.4% | 139 nM | 240.05% | 150 nM |  | 
CCOC(=O)N1CCC(NS(=O)(=O)NC(=O)c2cc(N3CCC(COC)CC3)c3c(C4CCC4)nn(-c4ccccc4)c3n2)CC1 [Compound 393, ethyl 4-[({3-cyclobutyl-4-[4-(methoxymethyl)piperidin-1-yl]-1-phenyl-1H-pyrazolo[3,4-b]pyridine-6-carbonyl}sulfamoyl)amino]piperidine-1-carboxylate] | 533.65% | 20.8 nM | 423.6% | 51.4 nM |  | 
COCC1CCN(c2cc(C(=O)NS(=O)(=O)N3CCCN(C(C)=O)CC3)nc3c2c(C2CCC2)nn3-c2ccccc2)CC1 [Compound 394, N-(4-acetyl-1,4-diazepane-1-sulfonyl)-3-cyclobutyl-4-[4-(methoxymethyl)piperidin-1-yl]-1-phenyl-1H-pyrazolo[3,4-b]pyridine-6-carboxamide] | 366.87% | 47.9 nM | 194.35% | 99.5 nM |  | 
